Legend:
Spodoptera littoralis = Spodoptera littoralis (Egyptian cotton leaf worm) leaf disc spray test; type: in vivo; conditions: foliar, 72 h, application rate of 200 ppm, cotton leaf discs, L1 larvae, 3 days after infestation, read-out: control (at least one of mortality, anti-feedant effect, growth inhibition)
Method: Spodoptera littoralis (Egyptian Cotton Leaf Worm)
Cotton leaf discs were placed on agar in 24-well microtiter plates and sprayed with aqueous test solutions prepared from 10'000 ppm DMSO stock solutions. After drying the leaf discs were infested with five L1 larvae. The samples were assessed for mortality, anti-feedant effect, and growth inhibition in comparison to untreated samples 3 days after infestation. Control of Spodoptera littoralis by a test sample is when at least one of mortality, anti-feedant effect, and growth inhibition is higher than the untreated sample.

Plutella xylostella = Plutella xylostella (diamond back moth) artificial diet test; type: in vivo; conditions: 120 h, application rate of 200 ppm, L2 larvae, 5 days after infestation, read-out: effect in at least one of the two categories (mortality or growth inhibition)
Method: Plutella xylostella (Diamond Back Moth):
24-well microtiter plates with artificial diet were treated with aqueous test solutions prepared from 10'000 ppm DMSO stock solutions by pipetting. After drying, the plates were infested with L2 larvae (10 to 15 per well). The samples were assessed for mortality and growth inhibition in comparison to untreated samples 5 days after infestation. The following compounds gave an effect of at least 80% in at least one of the two categories (mortality or growth inhibition) at an application rate of 200 ppm: 1, 2, 3, 4, 5, 6, 7, 8, 9, 10, 11, 12, 13, 14, 15, 16, 17, 18, 19, 20, 21, 22, 23, 24, 25, 26, 27, 28, 29, 30, 31, 32, 33, 35, 36, 37, 38, 39, 40, 41, 42, 43, 44, 45, 46, 47, 48, 50, 51, 52, 53, 54 and 55.

Diabrotica balteata = Diabrotica balteata (corn root worm) maize sprout test; type: in vivo; conditions: 96 h, application rate of 200 ppm, maize sprouts, L2 larvae, 4 days after infestation, read-out: effect in at least one of the two categories (mortality or growth inhibition)
Method: Diabrotica balteata, (Corn Root Worm)
Maize sprouts, placed on an agar layer in 24-well microtiter plates were treated with aqueous test solutions prepared from 10'000 ppm DMSO stock solutions by spraying. After drying, the plates were infested with L2 larvae (6 to 10 per well). The samples were assessed for mortality and growth inhibition in comparison to untreated samples 4 days after infestation. The following compounds gave an effect of at least 80% in at least one of the two categories (mortality or growth inhibition) at an application rate of 200 ppm: 1, 3, 4, 5, 6, 7, 8, 9, 10, 11, 12, 14, 15, 16, 17, 18, 19, 20, 21, 22, 23, 24, 25, 26, 27, 28, 29, 30, 31, 32, 33, 35, 36, 37, 38, 39, 40, 41, 42, 43, 44, 45, 48, 50, 51, 52, 53, 54 and 55.

Thrips tabaci = Thrips tabaci (onion thrips) sunflower leaf disc test; type: in vivo; conditions: foliar, 144 h, application rate of 200 ppm, sunflower leaf discs, mixed ages, 6 days after infestation
Method: Thrips tabaci (Onion thrips):
(§1) Sunflower leaf discs were placed on agar in 24-well microtiter plates and sprayed with aqueous test solutions prepared from 10'000 ppm DMSO stock solutions. After drying the leaf discs were infested with a thrips population of mixed ages. The samples were assessed for mortality 6 days after infestation.

Tetranychus urticae = Tetranychus urticae (two-spotted spider mite) bean leaf disc test; type: in vivo; conditions: foliar, 192 h, application rate of 200 ppm, bean leaf discs, mixed population (mobile stages), 8 days after infestation
Method: Tetranychus urticae (Two-Spotted Spider Mite):
as §1, with “Bean” for “Sunflower”, “discs” for “discs were placed”, “were” for “and”, “mite” for “thrips”, “on mixed population (mobile stages) 8” for “6”

Euschistus heros = Euschistus heros (neotropical brown stink bug) soybean leaf test; type: in vivo; conditions: 120 h, application rate of 200 ppm, soybean leaves, N2 nymphs, 5 days after infestation, read-out: effect in at least one of the two categories (mortality or growth inhibition)
Method: Euschistus heros (Neotropical Brown Stink Bug)
Soybean leaves on agar in 24-well microtiter plates were sprayed with aqueous test solutions prepared from 10'000 ppm DMSO stock solutions. After drying the leaves were infested with N2 nymphs. The samples were assessed for mortality and growth inhibition in comparison to untreated samples 5 days after infestation. The following compounds gave an effect of at least 80% in at least one of the two categories (mortality or growth inhibition) at an application rate of 200 ppm: 3, 4, 5, 6, 9, 10, 12, 14, 15, 16, 17, 18, 20, 24, 27, 28, 29, 31, 32, 33, 36, 37, 38, 42, 43, 45, 50, 52, 53, 54 and 55.

melting point [°C]	Structure (SMILES)	control (mortality, anti-feedant effect or growth inhibition) at 200 ppm (Spodoptera littoralis) [%]	percent effect (mortality or growth inhibition) at 200 ppm (Plutella xylostella) [%]	percent effect (mortality or growth inhibition) at 200 ppm (Diabrotica balteata) [%]	mortality at 200 ppm (Thrips tabaci) [%]	mortality at 200 ppm (Tetranychus urticae) [%]	percent effect (mortality or growth inhibition) at 200 ppm (Euschistus heros) [%]
184 to 185	Cn1nc(C(F)(F)C(F)(F)F)c(C(F)(F)F)c1-n1cc(-c2cc(C(=O)NC3(C#N)CC3)c(Br)s2)cn1 [Compound 61]	–	–	–	–	–	–
195 to 197	Cn1nc(C(F)(F)C(F)(F)F)c(C(F)(F)F)c1-n1cc(-n2cnc(C(=O)NC3(C#N)CC3)c2)cn1 [Compound 62]	–	–	–	–	–	–
146 to 148	Cn1nc(C(F)(F)C(F)(F)F)c(C(F)(F)F)c1-n1cc(-c2cc(C(=O)NC3CC3)sn2)cn1 [Compound 63]	–	–	–	–	–	–
152 to 153	COc1sc(-c2cnn(-c3c(C(F)(F)F)c(C(F)(F)C(F)(F)F)nn3C)c2)cc1C(=O)NC1CC1 [Compound 56]	–	–	–	–	–	–
–	Cn1nc(C(F)(F)C(F)(F)F)c(C(F)(F)F)c1-n1cc(-c2cc(C(=O)NC3CC3)c(Cl)s2)cn1 [Compound 3, 2-chloro-N-cyclopropyl-5-[1-[2-methyl-5-(1,1,2,2,2-pentafluoroethyl)-4-(trifluoromethyl)pyrazol-3-yl]pyrazol-4-yl]thiophene-3-carboxamide]	≥ 80	≥ 80	≥ 80	≥ 80	≥ 80	≥ 80
171 to 172	Cn1nc(C(F)(F)C(F)(F)F)c(C(F)(F)F)c1-n1cc(-c2cc(C(=O)NC3CC3)c(C#N)s2)cn1 [Compound 59]	–	–	–	–	–	–
192 to 193	Cn1nc(C(F)(F)C(F)(F)F)c(C(F)(F)F)c1-n1cc(-c2cc(C(=O)NC3CC3)c(Br)s2)cn1 [Compound 57]	–	–	–	–	–	–
–	Cn1nc(C(F)(F)C(F)(F)F)c(C(F)(F)F)c1-n1cc(-n2cc(C(=O)NC3CC3)c(C(F)(F)F)n2)cn1 [Compound 12]	≥ 80	≥ 80	≥ 80	≥ 80	≥ 80	≥ 80
–	Cn1nc(C(F)(F)C(F)(F)F)c(C(F)(F)F)c1-n1cc(-c2cc(C(=O)NC3(C(N)=S)CC3)c(Cl)s2)cn1 [Compound 6, N-(1-carbamothioylcyclopropyl)-2-chloro-5-[1-[2-methyl-5-(1,1,2,2,2-pentafluoroethyl)-4-(trifluoromethyl)pyrazol-3-yl]pyrazol-4-yl]thiophene-3-carboxamide]	≥ 80	≥ 80	≥ 80	≥ 80	≥ 80	≥ 80
–	Cn1nc(C(F)(F)C(F)(F)F)c(OC(F)F)c1-n1cc(-c2cc(C(=O)NC3CC3)c(Cl)s2)cn1 [Compound 37]	≥ 80	≥ 80	≥ 80	≥ 80	≥ 80	≥ 80
–	C=CCNC(=O)c1cc(-c2cnn(-c3c(C(F)(F)F)c(C(F)(F)C(F)(F)F)nn3C)c2)sc1Cl [Compound 29]	≥ 80	≥ 80	≥ 80	≥ 80	≥ 80	≥ 80
–	Cn1nc(C(F)(F)C(F)(F)F)c(C(F)(F)F)c1-n1cc(-c2cc(C(=O)NCC3CC3)c(Cl)s2)cn1 [Compound 27]	≥ 80	≥ 80	≥ 80	≥ 80	≥ 80	≥ 80
181 to 183	Cn1nc(C(F)(F)C(F)(F)F)c(C(F)(F)F)c1-n1cc(-c2cc(C(=O)NC3CC3)no2)cn1 [Compound 66]	–	–	–	–	–	–
242 to 244	Cn1nc(C(F)(F)C(F)(F)F)c(C(F)(F)F)c1-n1cc(-n2cc(C(=O)NC3CC3)nn2)cn1 [Compound 68]	–	–	–	–	–	–
–	Cn1nc(C(F)(F)C(F)(F)F)c(OC(F)F)c1-n1cc(-c2cc(C(=O)NC3(C#N)CC3)c(Cl)s2)cn1 [Compound 38]	≥ 80	≥ 80	≥ 80	≥ 80	≥ 80	≥ 80
190 to 191	Cn1nc(C(F)(F)C(F)(F)F)c(C(F)(F)F)c1-n1cc(-n2cnc(C(=O)NC3CC3)c2)cn1 [Compound 49]	–	–	–	–	–	–
132 to 133	Cn1nc(C(F)(F)C(F)(F)F)c(C(F)(F)F)c1-n1cc(-c2cnc(C(=O)NC3CC3)s2)cn1 [Compound 65]	–	–	–	–	–	–
> 250	Cn1nc(C(F)(F)C(F)(F)F)c(C(F)(F)F)c1-n1cc(-n2cc(C(=O)NC3(C#N)CC3)nn2)cn1 [Compound 67]	–	–	–	–	–	–
–	CCNC(=O)c1cc(-c2cnn(-c3c(C(F)(F)F)c(C(F)(F)C(F)(F)F)nn3C)c2)sc1Cl [Compound 20]	≥ 80	≥ 80	≥ 80	≥ 80	≥ 80	≥ 80
–	C=C(Cl)CNC(=O)c1cc(-c2cnn(-c3c(C(F)(F)F)c(C(F)(F)C(F)(F)F)nn3C)c2)sc1Cl [Compound 31]	≥ 80	≥ 80	≥ 80	≥ 80	≥ 80	≥ 80
158 to 159	Cn1nc(C(F)(F)C(F)(F)F)c(C(F)(F)F)c1-n1cc(-c2cnc(C(=O)NC3(C#N)CC3)s2)cn1 [Compound 64]	–	–	–	–	–	–
–	CN(C(=O)c1cc(-c2cnn(-c3c(C(F)(F)F)c(C(F)(F)C(F)(F)F)nn3C)c2)sc1Cl)C1(C#N)CC1 [Compound 9]	≥ 80	≥ 80	≥ 80	≥ 80	≥ 80	≥ 80
